Results from patent US9145386B2, “SOD-imitating metal complexes” (UNIVERSITAT DE VALENCIA, priority 2009, dated 2015).

Legend:
[1] = Potentiometric determination of protonation constants; format: physicochemical; conditions: NaClO4 0.15 mol·dm^−3, 298.1±0.1 K; for logarithm of protonation constant, L + H = HL: standard deviation of last figure in brackets
Description: (§1) Potentiometric measurements were performed to determine the acid-base behaviour of the new family of compounds, yielding the overall protonation constants required for the subsequent study on the formation of metal complexes with Cu(II), Fe(II) and Mn(II).
The numbers in brackets indicate the standard deviation of the last significant figure. ^a) The overall basicity constant is β=ΣKHjL

[2] = Stability constants for the formation of metal complexes with Mn2+ (potentiometry); format: physicochemical
Description: as §1
The evaporation was in fact carried out in flasks, in contact with atmospheric oxygen.

Row | SMILES | Log β (overall basicity constant) [1] | logarithm of protonation constant, H2L + H = H3L [1] | logarithm of protonation constant, HL + H = H2L [1] | logarithm of protonation constant, L + H = HL [1] | stability constant (log K), Mn + L = MnL [2] | stability constant, Mn + L + H = HMnL [2] | stability constant, MnL + H = HMnL [2] | logarithm of protonation constant, H3L + H = H4L [1] | stability constant, Mn + L + H2O = MnL(OH) + H^+ [2] | stability constant, MnL + OH = MnL(OH) [2]
1 | c1cc2nc(c1)CNCCN(CCNCc1ccc3ccccc3n1)CCNC2 [Compound 2] | 24.66(2) | 6.23(1) | 8.40(1) | 10.03(1) | 11.08(1) | 16.23(6) | 5.15(2) | – | – | –
2 | c1cc2nc(c1)CNCCN(CCNCc1ccnc3ccccc13)CCNC2 [Compound 1] | 27.00(1) | 5.94(1) | 8.31(1) | 9.93(1) | 8.91(1) | – | – | 2.82(1) | −1.36(1) | 3.45(1)
